Results from patent US20250059232A1, “PENTAPEPTIDE AND USE THEREOF” (ENSOL BIOSCIENCES INC., priority 2021, published 2025).

How the values were obtained:
MDA-MB-231 [1] = experiment: MDA-MB-231 xenograft in BalB/c nude mouse: survival rate; type: in vivo; settings: paclitaxel only
Method: To investigate survival rates of the paclitaxel-only administration group and the group co-administered with paclitaxel and the peptide of Example 1, experiments described below were performed. 5×10^6 cells/head of the human triple negative breast cancer cell line MDA-MB-231 were mixed with Matrigel and PBS (1:1). 100 ul of the mixture was injected into the right third fat pad of 7-week-old female BalB/c nude mouse. After the transplantation, drug administration started from an average tumor size of 70 mm^3. Paclitaxel 20 mg/kg was administered once weekly, and the peptide 100 mg/kg of Example 1 was administered subcutaneously 3 times weekly at 48-hour intervals, 48 hours after the paclitaxel administration. Each test group was administered for 12 weeks and animal survival was observed daily. FIG. 10 is a graph illustrating survival rates over time after sample administration in animal experimentation. In FIG. 10, the x-axis represents the elapsed time (days) after administration and the y-axis represents survival rates (%). […] In the case of the group co-administered with the peptide of Example 1, the first deceased mouse occurred on Day 60 of administration.

MDA-MB-231 [2] = experiment: MDA-MB-231 fat pad xenograft in athymic nude mouse: tumor volume and weight; type: in vivo, human; settings: paclitaxel only
Method: 5×10^6 cells/head of the human triple negative breast cancer cell line MDA-MB-231 (American Type Culture Collection (ATCC)) were mixed with Matrigel and PBS (1:1). 100 ul of the mixture was injected into the right third fat pad of 7-week-old female athymic nude mouse. After the transplantation, drug administration started from an average tumor size of 80 mm^3. Paclitaxel 20 mg/kg was administered on Day 0 and on Day 1. That is, the paclitaxel 20 mg/kg was administered a total of two times. Then, the peptide of Example 1 was administered in a dose of 100 mg/kg on Day 2, Day 4, and Day 6. That is, the peptide of Example 1 was administered a total of three times. Tumor volumes were measured 3 times a week for 3 weeks after administration of the first dose. Tumor weights were measured by necropsy after the end of the experiment. For each group, ten mice were used.
Tumor volume changes over time for each group are shown in FIG. 8, and tumor weight on the eighteenth day after the administration of the first dose for each group is shown in FIG. 9. FIG. 8 is a graph illustrating the changes in tumor volume over time after sample administration in animal experimentation. In FIG. 8, the x-axis represents the number of days elapsed after the start of administration and the y-axis represents the tumor volume change (mm^3). FIG. 9 is a graph illustrating a tumor weight for each test group in animal experimentation. In FIG. 9, the x-axis represents test groups and the y-axis represents tumor weights (mg).

4T1 cells = experiment: Syngeneic model implanted with paclitaxel-resistant 4T1 cells: tumor volume, Western blot of cleaved PARP and LC3II; type: in vivo, mouse; settings: paclitaxel only
Method: Cell death and autophagy marker changes were determined by the Western blot method, using a syngeneic model implanted with 4T1 cells (American Type Culture Collection (ATCC)), which are mouse triple negative breast cancer tumor cells resistant to paclitaxel. The drug administration was started, when the tumor volume was reached to 70 mm^3 after a fat pad of Balb/c mice (6 weeks old, female) was transplanted with 4T1 cells in a concentration of 1×10^6 cells/head. For Week 1, paclitaxel 20 mg/kg was administered on Day 1 and Day 2, and the peptide (10, 100 mg/kg) of Example 1 was co-administered on Day 3, Day 5, and Day 7. In addition, the same process was performed for each of Week 2, and Week 3 (n=3). The tumor volumes were measured daily because the tumors grew very quickly. The changes in cleaved PARP, which is a cell death marker, and the changes in LC3II, which is an autophagy marker, in tumors were analyzed after necropsy on the day after the end of the 3-week administration, by a Western blot test.
FIG. 5 is a graph illustrating the results of tumor volume measurements according to the number of days after treatment in animal experimentation. In FIG. 5, the x-axis represents the number of days elapsed after treatment and the y-axis represents the tumor volume change (mm^3).
In addition, the changes in cleaved PARP, which is a cell death marker, are shown in FIG. 6, and the changes in LC3II, which is an autophagy marker, are shown in FIG. 7. FIG. 6 is a graph showing the changes in expression of cleaved PARP, which is a cell death marker, for each treatment group in animal experimentation, and FIG. 7 is a graph showing the changes in expression of LC3II, which is an autophagy marker, for each treatment group in animal experimentation.

[3] = Stability test: HPLC relative purity of peptide dissolved in buffer, by pH and temperature; type: physicochemical
Method: For Example 1 and Comparative Example 1, stability tests according to pH for each temperature were performed.
Stability tests for each peptide were performed by liquid chromatography purity analysis for each temperature and each pH according to analysis timing (initial, 24 hours, 130 hours). […] Samples were analyzed by injecting 20 ul of each sample with an auto-sample injector, and the analysis column was Inspire C18 (4.6×250 mm, […], 12 nm) manufactured by Dikma. The analysis temperature was 40° C., and a UV wavelength of 215 nm was used.
On the basis of the HPLC analysis results, relative purity was calculated for Comparative Example 1 and Example 1 for each storage condition. The relative purity is the percentage of measured purity changing according to the storage period, with the initial purity being set to 100% for each sample. FIGS. 1 and 2 are graphs showing the results of stability tests for Example and Comparative Example stored at a temperature of 25° C., in which FIG. 1 is a graph of a test result for 24 hours of storage, and FIG. 2 is a graph of a test result for 130 hours of storage. FIGS. 3 and 4 are graphs showing the results of stability tests for Example and Comparative Example stored at 40° C., in which FIG. 3 is a graph of a test result for 24 hours of storage, and FIG. 4 is a graph of a test result for 130 hours of storage. In each graph, the x-axis represents the test group by pH and the y-axis represents the relative purity […].

[4] = eighteenth day after first dose

CC(=O)O[C@H]1C(=O)[C@@]2(C)[C@H]([C@H](OC(=O)c3ccccc3)[C@]3(O)C[C@H](OC(=O)[C@H](O)[C@@H](NC(=O)c4ccccc4)c4ccccc4)C(C)=C1C3(C)C)[C@]1(OC(C)=O)CO[C@@H]1C[C@@H]2O [paclitaxel, reference compound]
Day of administration on which the first deceased mouse occurred (MDA-MB-231 [1]; 20 mg/kg once weekly): 21 days
Survival rate after the end of the experiment (MDA-MB-231 [1]; 12 weeks): 30%
CR (mice in which the tumor disappeared) (MDA-MB-231 [2]; 20 mg/kg Day 0 and Day 1, ten mice): 10%
Reduction in tumor volume compared to control group (MDA-MB-231 [2]; [4]): 33%
Reduction in tumor weight compared to control group (MDA-MB-231 [2]; [4]): 34.5%
Day on which the tumor disappeared (MDA-MB-231 [2]; one mouse): 16 days
Reduction in tumor volume compared to the control group (4T1 cells; 20 mg/kg, Balb/c mice): insignificant reduction in tumor volume
Increase in LC3II expression level in tumor compared to control group (4T1 cells; Western blot after 3-week administration): 2.4 fold

QLHLD [Comparative Example 1, reference compound]
Stability (summary in words) ([3]; liquid state, pH 2-9, 25 and 40° C., up to 130 hours): in some cases, the samples were not stable
Relative purity ([3]; pH 2, 25 ± 2° C., RH 60 ± 5%, storage 0 hours (initial set to 100%)): 100.0%
Relative purity ([3]; pH 2, 25 ± 2° C., RH 60 ± 5%, storage 24 hours): 79.0%
Relative purity ([3]; pH 2, 25 ± 2° C., RH 60 ± 5%, storage 130 hours): 25.0%
Relative purity ([3]; pH 2, 40 ± 2° C., RH 75 ± 5%, storage 0 hours (initial set to 100%)): 100.0%
Relative purity ([3]; pH 2, 40 ± 2° C., RH 75 ± 5%, storage 24 hours): 27.6%
Relative purity ([3]; pH 2, 40 ± 2° C., RH 75 ± 5%, storage 130 hours): 0.3%
Relative purity ([3]; pH 5, 25 ± 2° C., RH 60 ± 5%, storage 0 hours (initial set to 100%)): 100.0%
Relative purity ([3]; pH 5, 25 ± 2° C., RH 60 ± 5%, storage 24 hours): 77.9%
Relative purity ([3]; pH 5, 25 ± 2° C., RH 60 ± 5%, storage 130 hours): 21.7%
Relative purity ([3]; pH 5, 40 ± 2° C., RH 75 ± 5%, storage 0 hours (initial set to 100%)): 100.0%
Relative purity ([3]; pH 5, 40 ± 2° C., RH 75 ± 5%, storage 24 hours): 21.8%
Relative purity ([3]; pH 5, 40 ± 2° C., RH 75 ± 5%, storage 130 hours): 0.1%
Relative purity ([3]; pH 7, 25 ± 2° C., RH 60 ± 5%, storage 0 hours (initial set to 100%)): 100.0%
Relative purity ([3]; pH 7, 25 ± 2° C., RH 60 ± 5%, storage 24 hours): 28.5%
Relative purity ([3]; pH 7, 25 ± 2° C., RH 60 ± 5%, storage 130 hours): 0.1%
Relative purity ([3]; pH 7, 40 ± 2° C., RH 75 ± 5%, storage 0 hours (initial set to 100%)): 100.0%
Relative purity ([3]; pH 7, 40 ± 2° C., RH 75 ± 5%, storage 24 hours): 0.2%
Relative purity ([3]; pH 7, 40 ± 2° C., RH 75 ± 5%, storage 130 hours): 0.0%
Relative purity ([3]; pH 9, 25 ± 2° C., RH 60 ± 5%, storage 0 hours (initial set to 100%)): 100.0%
Relative purity ([3]; pH 9, 25 ± 2° C., RH 60 ± 5%, storage 24 hours): 50.2%
Relative purity ([3]; pH 9, 25 ± 2° C., RH 60 ± 5%, storage 130 hours): 2.4%
Relative purity ([3]; pH 9, 40 ± 2° C., RH 75 ± 5%, storage 0 hours (initial set to 100%)): 100.0%
Relative purity ([3]; pH 9, 40 ± 2° C., RH 75 ± 5%, storage 24 hours): 8.5%
Relative purity ([3]; pH 9, 40 ± 2° C., RH 75 ± 5%, storage 130 hours): 0.0%
